Measured values from patent US11607462B2, “Systems and methods for minimally-invasive assessment of toxicity-induced tissue injury” (Northwestern University, priority 2017, dated 2023).

Key:
[1] = test system: rats; experiment: Histopathology of organs and tissues collected after single time point imaging
Protocol: (§1) The single time point studies were terminal so that they allowed immediate tissue retrieval for cross-validation using histopathological analyses. […] Each animal was injected with about 2 mCi of ^99mTc-duramycin and after 1 hour the SPECT/CT/MRI data were acquired. From each group, the animals were immediately euthanized after imaging. The organs and tissues from three randomly selected individuals were collected, fixed and processed for histopathology.

[2] = test system: rats; experiment: In vivo single time point SPECT/CT/MRI imaging of ^99mTc-duramycin uptake (toxicity scan)
Protocol: as §1
A second group of animals was with methotrexate as directed by the literature in an effort to examine whether early changes in toxicity would correlate with increases in ^99mTc-duramycin uptake.

[3] = test system: rats; details: cyclophosphamide single dose; each individual normalized to own baseline
Protocol: This approach involved the acquisition of a baseline scan, prior to drug administration, followed by multiple post-treatment scans spanning the acute phase at 8, 48, 96, and 168 hours. […] In addition, the baseline scan for each animal serves as an internal control. The repeated noninvasive imaging allowed continuous monitoring of tissue changes with individualized data analysis.

[4] = test system: rats; experiment: Quantitative ex vivo gamma counting of ^99mTc-duramycin uptake in excised tissues after chemotoxic drug
Protocol: This initial quantitative study was conducted by determining changes in radioactivity uptake in excised tissues using gamma counting ex vivo. Experiments were designed to survey changes in ^99mTc-duramycin uptake in tissues from treated versus untreated control groups after administration of a single dosage of each chemotherapeutic drug for each population of animals. […] Accordingly, at designated time post-treatment, ^99mTc-duramycin was injected intravenously and each animal was euthanized for tissue collection and gamma counting. This is a standard practice in radionuclide studies that provides precise, quantitative biodistribution data for measuring changes in tracer uptake.
The data can be expressed in two ways—net change in ^99mTc-duramycin uptake per unit tissue in cyclophosphamide-treated tissues relative to the mean value of the non-treated control population (FIG. 1A), and fold changes in ^99mTc-duramycin uptake over the mean of control (1B).
An organ, such as the kidney, consists of different anatomical components (cortex, medulla, hilum), where the in vivo imaging data provide more spatial information by identifying signal changes within the substructures of an organ (see in vivo sections below).
Although the ex vivo gamma counting is a standard practice in radionuclide studies, a notable limitation is that the tissue collection may be prone to sampling errors. In addition, this approach provides limited spatial information in terms of the distribution within an intact organ/tissue.

[5] = cyclophosphamide single dose, day-2
[6] = cyclophosphamide single dose 80 mg/kg i.p., 2 days

## N.N.[Cl][Pt][Cl] [cisplatin]
[1]; rat, in vivo
  histopathology of kidney: cellular degradation and significantly elevated apoptosis in the cortical region

## O=P1(N(CCCl)CCCl)NCCCO1 (stereo not drawn) [cyclophosphamide]
[1]; [5]
  apoptotic index, kidney medulla: significantly elevated apoptotic index in the local tissue
  apoptotic index, thymus: significantly elevated apoptotic index
  histopathology of bones (epiphysis regions, marrow): extensive decellularization in the marrow
[2]; [5]
  key tissues with changes in ^99mTc-duramycin uptake: kidneys—medulla and cortex, spleen, thymus and gut
  region of the kidneys affected: primarily affect the infundibulum of the kidneys
  tissues with statistically elevated, relatively low signals: bones, adipose tissue, heart, lung, muscle, skin and stomach
[3]
  tissues with elevated coefficients of variation compared to the baseline: bone, colon, gut, heart, skin, and thymus
[4]; [6]
  tissues with highest fold changes in ^99mTc-duramycin uptake: thymus, adipose tissue, pancreas, brain, right ventricle, liver and bone
  tissues with the largest elevation in ^99mTc-duramycin uptake: kidneys, liver, spleen, thymus, lung, small intestine and bone

## CN(Cc1cnc2nc(N)nc(N)c2n1)c1ccc(C(=O)N[C@@H](CCC(=O)O)C(=O)O)cc1 [methotrexate]
[1]; rat, in vivo
  histopathology of joints: joint degeneration and thrombosis
[2]; rat, in vivo
  changes in skin signals: non-uniform throughout the body
  signals in the joints: drastically elevated signals in the joints
  tissues with highest changes in terms of fold elevation: colon, kidney—medulla, bone, spleen, and kidney—cortex
  tissues with the highest signal changes as net ^99mTc-duramycin uptake per unit tissue: kidneys and colon
[4]; rat, in vivo, 100 mg/kg
  change in ^99mTc-duramycin uptake in tissues: notable elevation in ^99mTc-duramycin uptake in a number of tissues
  most prominent tissues according to fold changes: small intestine, colon, liver, thymus and kidneys
  tissues with the highest increase in ^99mTc-duramycin uptake: kidneys, small intestine, liver, and colon
